Data as given in PubChem BioAssay AID2060496 (Molecular Pharmacology Branch, DTP, NCI, 2025).

Test system: 276233-004-R-J1-PDC complex spheroid viability
Assay: Anticancer human tumor 276233-004-R-J1-PDC patient-derived colon adenocarcinoma cell line growth inhibition [GQUAD]
Details: for IC50: curve of first compound; for viability, T/C: stronger effect = lower value
From the text: DNA G-quadruplex Stabilizer Agents in Combinations in Complex Spheroids
A high-throughput screen of multi-cell type tumor spheroids was designed to identify active combinations of DNA G-quadruplex stabilizer agents and targeted small molecules. Complex spheroids include a stromal component modeled by human endothelial cells (HUVEC) and fibroblasts modeled by human mesenchymal stem cells (MSCs). The concentration ranges selected for each drug and investigational agent were based upon clinically achievable concentrations if the clinical Cmax of the agent was known.
Compounds. The drugs and investigational agents: pidnarulex (CX-5461; NSC782164), APTO-253 (NSC789042), BRACO-19 (NSC847499), peposertib (NSC802822), ceralasertib (NSC780249), elimusertib (NSC800525), camonsertib (NSC841442), AZD-1390 (NSC803789), olaparib (NSC753686), talazoparib (NSC767125), ART-558 (NSC835418), sotorasib (NSC818433), MRTX-1133 (NSC836407), SN-38 (NSC673596), topotecan (NSC609699), etoposide (NSC141540), doxorubicin (NSC123127), gemcitabine (NSC613327), 5-fluorouracil (NSC19893), paclitaxel (NSC125973), vemurafenib (NSC761431), panobinostat (NSC761190), R-306465 (JNJ-16241199; NSC773264), adavosertib (NSC754352), TP-3654 (NSC805149), carboplatin (NSC241240), KSQ-4279 (NSC840948), and staurosporine (NSC755774) were obtained from the National Cancer Institute (NCI) Developmental Therapeutics Program Chemical Repository (34). The FDA-approved anticancer drug set is available from the NCI Developmental Therapeutics Program. […] The stock solutions were prepared in dimethyl sulfoxide (DMSO, Sigma-Aldrich, St. Louis, MO, cat. D2650) at 800-fold the tested concentration and stored at -70 degrees C prior to their use. All drugs and investigational agents were tested over a range starting from a high concentration at or near the clinical Cmax and decreasing in half-log increments. If the clinical Cmax for an agent had not been determined, the highest concentration tested was 10 microM.
2.3 Cell Culture. All cells were maintained in an incubator at 37 degrees C and 5% CO2 with 95% humidity. The PDC lines were cultured according to standard operating procedures established by the NCI PDMR. All PDCs were thawed and cultured in Matrigel-coated flasks prepared with a working solution of 1X Ham's F-12 nutrient mix, without supplementation (Invitrogen, cat. 11765054), 100 U/mL penicillin-streptomycin (Invitrogen, cat. 15140122), and 2.5% Matrigel (Corning Inc., cat. 354248) for the first three passages. The 857933-349-R-J2-PDC line was cultured in 6C/Colon 1B media, which includes advanced DMEM/F-12 (Thermo Fisher Scientific, cat. 12634028), 10 mM HEPES (Thermo Fisher Scientific, cat. 15630080), 1X GlutaMAX supplement (Thermo Fisher Scientific, cat. 35050061), 0.1 mg/mL primocin (InvivoGen, cat. ant-pm-2), 10% defined fetal bovine serum, heat inactivated (HyClone Laboratories Inc., cat. SH30070.03HI), 50% L-WRN conditioned media (ATCC, cat. CRL-3276), 1.25 mM N-Acetyl-L-cysteine (Sigma-Aldrich, cat. A9165), 10 mM nicotinamide (Sigma-Aldrich, cat. N0636), 1X B-27 supplement (Thermo Fisher Scientific, cat. 17504044), 1X N-2 supplement (Thermo Fisher Scientific, cat. 17502048), 10 microM Y-27632 dihydrochloride (Tocris Bioscience, cat. 1254), and 50 ng/mL human EGF recombinant protein (Thermo Fisher Scientific, cat. PHG0311). The 485176-168-R4-J1-PDC line was cultured in Panc media, which includes all 6C/Colon 1B media components plus 100 ng/mL human FGF-10 (Thermo Fisher Scientific, cat. 100-26), 500 nM SB-431542 (Selleckchem, cat. S1067), and gastrin (Tocris, cat. 3006).
[…]
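Note: spheroids exposed to drugs for seven days.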
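Throughout, for viability, T/C: 100% = DMSO vehicle control viability.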

COc1ncnc(C2CC2)c1-c1ncc2cnn(Cc3ccc(-c4nc(C(F)(F)F)cn4C(C)C)cc3)c2n1 + CN(C)c1ccc(Nc2c3ccc(NC(=O)CCN4CCCC4)cc3nc3cc(NC(=O)CCN4CCCC4)ccc23)cc1
IC50 (second compound 0.0316 µM): > 10000 nM | IC50 (second compound 0.1 µM): > 10000 nM | IC50 (second compound 0.316 µM): > 10000 nM | IC50 (second compound 1 µM): 31.6 nM | IC50 (second compound 3.16 µM): < 31.6 nM | IC50 (second compound 10 µM): < 31.6 nM | viability, T/C (second compound 0.0316 µM, first compound 0.0316 µM): 87.4% | viability, T/C (second compound 0.0316 µM, first compound 0.1 µM): 84.2% | viability, T/C (second compound 0.0316 µM, first compound 0.316 µM): 74.3% | viability, T/C (second compound 0.0316 µM, first compound 1 µM): 75.6% | viability, T/C (second compound 0.0316 µM, first compound 3.16 µM): 68.8% | viability, T/C (second compound 0.0316 µM, first compound 10 µM): 100% | viability, T/C (second compound 0.1 µM, first compound 0.0316 µM): 70.4% | viability, T/C (second compound 0.1 µM, first compound 0.1 µM): 90.2% | viability, T/C (second compound 0.1 µM, first compound 0.316 µM): 77.5% | viability, T/C (second compound 0.1 µM, first compound 1 µM): 75.8% | viability, T/C (second compound 0.1 µM, first compound 3.16 µM): 58.6% | viability, T/C (second compound 0.1 µM, first compound 10 µM): 65.8% | viability, T/C (second compound 0.316 µM, first compound 0.0316 µM): 69.4% | viability, T/C (second compound 0.316 µM, first compound 0.1 µM): 72.7% | viability, T/C (second compound 0.316 µM, first compound 0.316 µM): 59.9% | viability, T/C (second compound 0.316 µM, first compound 1 µM): 44% | viability, T/C (second compound 0.316 µM, first compound 3.16 µM): 69.4% | viability, T/C (second compound 0.316 µM, first compound 10 µM): 72.5% | viability, T/C (second compound 1 µM, first compound 0.0316 µM): 57.3% | viability, T/C (second compound 1 µM, first compound 0.1 µM): 49.6% | viability, T/C (second compound 1 µM, first compound 0.316 µM): 51.4% | viability, T/C (second compound 1 µM, first compound 1 µM): 47% | viability, T/C (second compound 1 µM, first compound 3.16 µM): 65.3% | viability, T/C (second compound 1 µM, first compound 10 µM): 68.5% | viability, T/C (second compound 3.16 µM, first compound 0.0316 µM): 53.2% | viability, T/C (second compound 3.16 µM, first compound 0.1 µM): 35.7% | viability, T/C (second compound 3.16 µM, first compound 0.316 µM): 53.1% | viability, T/C (second compound 3.16 µM, first compound 1 µM): 49.5% | viability, T/C (second compound 3.16 µM, first compound 3.16 µM): 56.7% | viability, T/C (second compound 3.16 µM, first compound 10 µM): 57.6% | viability, T/C (second compound 10 µM, first compound 0.0316 µM): 35.6% | viability, T/C (second compound 10 µM, first compound 0.1 µM): 41.8% | viability, T/C (second compound 10 µM, first compound 0.316 µM): 36.7% | viability, T/C (second compound 10 µM, first compound 1 µM): 38.4% | viability, T/C (second compound 10 µM, first compound 3.16 µM): 58.4% | viability, T/C (second compound 10 µM, first compound 10 µM): 53.5%
